Data published in patent publication US20110269802A1, “METHOD OF DELIVERY OF PERISHABLE LIQUID MIXTURES USING MIXING CAP AND CONTAINER SYSTEM” (priority 2010, published 2011).

System: diabetic, insulin dependent canine test subject
Experiment: GABA in drinking water given to diabetic, insulin dependent canine subjects; monitoring of fasting blood glucose and fructosamine
Type: in vivo
Settings: for decline of fasting blood glucose: 30 mg/kg daily in 200 milliliters of water, oral, after two months of treatment, subject as its own control
Method: METHODS: GABA (99% pure from Sigma-Aldrich) at a dose of 30 mg/kg was brought into solution in 200 milliliters of water daily so that the diabetic, insulin dependent canine test subject consumed the dose within approximately four hours, based on average consumption of water observed by owners. Fasting blood glucose and fructosamine were monitored once a month. Each canine subject served as its own control, with monitoring of blood glucose and fructosamine off treatment recorded the first two months followed by monitoring while on GABA therapy.

SMILES: NCCCC(=O)O [GABA, gamma-aminobutyric acid]
- concentrations of blood fructosamine (both subjects, 30 mg/kg daily in water, on treatment versus off treatment): significantly lower
- decline of fasting blood glucose (first test subject): 49.6%
- glycemic control (insulin dependent test subjects, 30 mg/kg daily in water, within two weeks, continued improvement over four months): improved glycemic control within two weeks
- decline of fasting blood glucose (second test subject): 50%
